pIC50: −log10 of the molar value. ≈ marks a conversion by molar mass, not a printed value. Calls of active or inactive are those of the source. The rule behind the calls is not given here.
How the values were obtained:
[1] = target: Alcohol dehydrogenase class-3 (Homo sapiens) (UniProt P11766); assay: Binding affinity to Alcohol dehydrogenase class-3 in human MDA-MB-468 cells at 10 uM incubated for 2 hrs in presence of 12-amino-2-[4-[(1S)-1-[(4,5-dichloro-1,6-dimethyl-indole-2-carbonyl)amino]-2-hydroxy-ethyl]phenyl]sulfonyl-dodecanoic acid by quantitative chemical proteomics assay; assay type: cell-based
[2] = Stability in rat liver microsomes relative to hepatic blood flow; assay type: ADME, Microsome; details: read-out: Stability
[3] = Protein binding in 10% fetal calf serum; assay type: ADME, cell-free, Bos taurus; details: cattle, read-out: PB (converted)
[4] = target: Alcohol dehydrogenase class-3 (Homo sapiens) (UniProt P11766); assay: Binding affinity to Alcohol dehydrogenase class-3 in human MDA-MB-468 cells at 10 uM incubated for 2 hrs in presence of 2-[4-[(1S)-1-[[6-(10-aminodecyl)-4,5-dichloro-1-methyl-indole-2-carbonyl]amino]-2-hydroxy-ethyl]phenyl]sulfonylacetic acid by quantitative chemical proteomics assay; assay type: cell-based
[5] = target: T1, 3-hydroxyisobutyrate dehydrogenase, mitochondrial (Homo sapiens) (UniProt P31937); assay: Binding affinity to 3-hydroxyisobutyrate dehydrogenase in human MDA-MB-468 cells at 10 uM incubated for 2 hrs in presence of 2-[4-[(1S)-1-[[6-(10-aminodecyl)-4,5-dichloro-1-methyl-indole-2-carbonyl]amino]-2-hydroxy-ethyl]phenyl]sulfonylacetic acid by quantitative chemical proteomics assay; assay type: cell-based
T1 sequence (whole entry): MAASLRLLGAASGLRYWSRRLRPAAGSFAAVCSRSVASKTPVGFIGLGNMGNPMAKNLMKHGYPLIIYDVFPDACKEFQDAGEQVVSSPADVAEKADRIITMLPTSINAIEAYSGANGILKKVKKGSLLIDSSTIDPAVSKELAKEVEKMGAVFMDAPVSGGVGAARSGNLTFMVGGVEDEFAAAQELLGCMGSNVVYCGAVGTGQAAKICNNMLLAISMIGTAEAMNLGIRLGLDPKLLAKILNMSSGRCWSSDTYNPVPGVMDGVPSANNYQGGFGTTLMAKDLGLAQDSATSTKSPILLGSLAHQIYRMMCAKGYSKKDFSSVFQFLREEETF

[6] = Stability in mouse liver microsomes relative to hepatic blood flow; assay type: ADME, Microsome; details: read-out: Stability
[7] = target: T2, D-3-phosphoglycerate dehydrogenase (Homo sapiens, UniProt O43175); assay: Inhibition of PHGDH in human MDA-MB-468 cells assessed as reduction in [13C]-serine incubated for 72 hrs using [13C]glucose as substrate by LC-MS/MS analysis; assay type: cell-based
T2 sequence (O43175 whole entry): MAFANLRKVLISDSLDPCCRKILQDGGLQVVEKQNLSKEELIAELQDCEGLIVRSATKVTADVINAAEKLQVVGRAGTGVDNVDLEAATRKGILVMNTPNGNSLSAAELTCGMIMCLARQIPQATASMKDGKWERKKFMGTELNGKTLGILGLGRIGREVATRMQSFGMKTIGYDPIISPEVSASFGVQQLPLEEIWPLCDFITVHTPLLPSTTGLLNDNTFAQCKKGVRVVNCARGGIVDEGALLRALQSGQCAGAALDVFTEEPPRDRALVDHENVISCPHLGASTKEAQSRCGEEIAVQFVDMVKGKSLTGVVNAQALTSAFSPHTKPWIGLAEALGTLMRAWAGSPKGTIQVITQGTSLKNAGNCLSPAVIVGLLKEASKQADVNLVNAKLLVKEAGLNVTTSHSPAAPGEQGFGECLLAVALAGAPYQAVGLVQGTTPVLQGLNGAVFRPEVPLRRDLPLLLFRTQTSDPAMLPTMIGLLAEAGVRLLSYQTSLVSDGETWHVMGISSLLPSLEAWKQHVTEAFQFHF

[8] = Solubility pH 6.8 buffer; assay type: physicochemical
[9] = Solubility pH 4.5 buffer; assay type: physicochemical
[10] = Stability in human liver microsomes relative to hepatic blood flow; assay type: ADME, Microsome; details: read-out: Stability
[11] = target: T1, 3-hydroxyisobutyrate dehydrogenase, mitochondrial (Homo sapiens); assay: Binding affinity to 3-hydroxyisobutyrate dehydrogenase in human MDA-MB-468 cells at 10 uM incubated for 2 hrs in presence of 12-amino-2-[4-[(1S)-1-[(4,5-dichloro-1,6-dimethyl-indole-2-carbonyl)amino]-2-hydroxy-ethyl]phenyl]sulfonyl-dodecanoic acid by quantitative chemical proteomics assay; assay type: cell-based
[12] = Permeability from apical to basolateral side in human Caco2 cells; assay type: ADME, cell-based; details: caco-2
[13] = Stability in mouse hepatocytes relative to hepatic blood flow; assay type: ADME, cell-based, Hepatocyte; details: read-out: Stability
[14] = Efflux ratio of permeability from apical to basolateral side over basolateral to apical side in human Caco2 cells; assay type: ADME, cell-based; details: caco-2
[15] = Permeability from basolateral to apical side in human Caco2 cells; assay type: ADME, cell-based; details: caco-2
[16] = Protein binding in mouse plasma; assay type: ADME, cell-free; details: read-out: PPB (converted)

Chain of Alcohol dehydrogenase class-3 (Homo sapiens) (P11766 2-374 limits assumed): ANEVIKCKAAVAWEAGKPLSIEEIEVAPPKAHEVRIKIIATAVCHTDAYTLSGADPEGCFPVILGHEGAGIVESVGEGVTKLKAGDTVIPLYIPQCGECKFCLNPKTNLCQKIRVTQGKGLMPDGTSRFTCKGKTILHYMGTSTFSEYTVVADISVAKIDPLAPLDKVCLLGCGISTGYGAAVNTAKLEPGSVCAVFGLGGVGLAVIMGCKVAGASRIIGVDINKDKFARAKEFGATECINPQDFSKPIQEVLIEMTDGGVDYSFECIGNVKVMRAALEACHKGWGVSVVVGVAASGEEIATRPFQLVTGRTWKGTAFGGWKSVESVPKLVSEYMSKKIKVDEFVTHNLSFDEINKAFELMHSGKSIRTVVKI

Activity [1]: Active
hepatic extraction ratio [2]: < 0.24
fraction unbound [3]: 0.17
Activity [4]: Active
Activity [5]: Active
hepatic extraction ratio [6]: < 0.23
pIC50 [7]: 5.66
solubility [8]: 59 mg/mL (≈ 118 mM)
solubility [9]: 64 mg/mL (≈ 128 mM)
hepatic extraction ratio [10]: < 0.24
Activity [11]: Active
permeability [12]: 0.2 ×10⁻⁶ cm/s
hepatic extraction ratio [13]: 0.38
Ratio [14]: 11
permeability [15]: 0.2 ×10⁻⁶ cm/s
fraction unbound [16]: 0.004
SMILES: Cc1cc2c(cc(C(=O)N[C@H](CO)c3ccc(S(=O)(=O)CC(=O)O)cc3)n2C)c(Cl)c1Cl

Source: ChEMBL document CHEMBL4373702, “Intracellular Trapping of the Selective Phosphoglycerate Dehydrogenase (PHGDH) Inhibitor BI-4924 Disrupts Serine Biosynthesis” (J Med Chem, 2019)
